Laboratory results as given in patent US11554115B2, “Quinoline derivative for treatment of triple-negative breast cancer” (CHIA TAI TIANQING PHARMACEUTICAL GROUP CO., LTD., priority 2018, dated 2023).
Counter-ions that a name gives are not always drawn.

System: advanced or metastatic triple-negative breast cancer (ER-negative, PR-negative, HER2-negative)
Assay: Clinical trial in patients with advanced or metastatic triple-negative breast cancer
Format: in vivo, human
Details: patients aged ≥18 years; capsules alone or in combination with chemotherapy; 12 mg once daily, two-week treatment, one-week rest

With `COc1cc2c(Oc3ccc4[nH]c(C)cc4c3F)ccnc2cc1OCC1(N)CC1` [1-[[[4-(4-fluoro-2-methyl-1H-indol-5-yl)oxy-6-methoxyquinolin-7-yl]oxy]methyl]cyclopropylamine dihydrochloride] the “efficacy for the treatment of triple-negative breast cancer” value was “effective”.
